Measured values: patent US4950686A, “Anti-mycoplasma agent” (Shionogi & Co., Ltd., priority 1986, dated 1990)
In brackets after ≈: the same amount, converted by molar mass. Where a name gives a salt, the structure may show the parent alone. Read-outs that look alike come from different tables or passages of the source.

Columns and labels:
[1] = test system: Mycoplasma gallisepticum S6 (standard strain); assay: Anti-mycoplasma activity in vitro (MIC, broth dilution), strain S6; assay type: cell-based; settings: Mg S6, 37° C., 7 days
Description: (§1) (1) Anti-mycoplasma activity test in vitro
(§2) MIC values of each of Tropolones were measured on the following strains according to the following method.
(§3) (a) Mycoplasma gallisepticum
(§4) Medium: Chick PPLO broth supplemented with 20% equine serum (Eiken Kagaku Co., Ltd.)
(§5) Method: Broth dilution method
(§6) Inoculum: Culture incubated at 37° C. for 24-48 hr which is diluted with broth to 10^6 CCU/ml immediately before the use.
(§7) To 1.6 ml of the broth is added 0.2 ml of an agent which has been subjected to 2-fold dilution and then added 0.2 ml of inoculum, which is incubated at 37° C. for 7 days.

[2] = test system: Mycoplasma gallisepticum T-7-T (wild strain, tylosin-resistant); assay: Anti-mycoplasma activity in vitro (MIC, broth dilution), strain T-7-T; assay type: cell-based; settings: Mg T-7-T, 37° C., 7 days
Description: as §1, §2, §3
T-7-T (wild strain, tylosin-resistant)
as §4, §5, §6, §7

[3] = test system: Mycoplasma gallisepticum MR-1 (wild strain, tylosin-resistant); assay: Anti-mycoplasma activity in vitro (MIC, broth dilution), strain MR-1; assay type: cell-based; settings: Mg MR-1, 37° C., 7 days
Description: as §1, §2, §3
MR-1 (wild strain, tylosin-resistant)
as §4, §5, §6, §7

[4] = test system: Mycoplasma hyopneumoniae ST-11 (standard strain); assay: Anti-mycoplasma activity in vitro (MIC, broth dilution), strain ST-11; assay type: cell-based; settings: Mh ST-11
Description: as §1, §2
(b) Mycoplasma hyopneumoniae
Strain: ST-11 (standard strain)
Medium: 850 ml of Hanks' solution supplemented with 0.5% lactoalbumin, 50 ml of 25% yeast, 100 ml of equine serum and 4-6 ml of 0.5% phenol red (pH 7.4-7.6)
as §5
Inoculum: Culture which is incubated for 3-4 days and diluted 10 times with the broth if color of the broth becomes yellow then. If it needs over 4 days until color of the broth becomes yellow, it is further subcultured. This is diluted 10 times with the broth to give inoculum.
Assay is done in the same manner as in the above (a).

[5] = test system: Mycoplasma gallisepticum S6 (standard strain); assay: Mycoplasma gallisepticum air-sac infection method in chicken, strain S6; assay type: in vivo, Mycoplasma gallisepticum; SPF chicken (white leghorn); settings: 200 mg/kg × once oral, 20 mg/ml sol. c; for Index of Isolation: inoculum 6.3 × 10^4, trachea ND, range 0-6.0
Description: (2) Test of Effectiveness Mycoplasma gallisepticum air-sac infection method
Inoculation: To the right air-sac of 9 days old SPF chicken (a white leghorn) which has abstained from water and feed one day before is inoculated 0.20-0.25 ml/chicken of fresh mycoplasma culture incubated for 24-48 hr and diluted with broth (usually 100 times). The concentration in Table 2 is shown in a unit of mg/ml.
Medium: Chick PPLO broth supplemented with 15% equine serum (Eiken Kagaku Co., Ltd.)
Administration: A compound of this invention dissolved or suspended in the following solution is orally and forcibly administered once by a cannula immediately after the infection.
Anatomization and Isolation of Microorganism: The chickens are anatomized 5 days after the infection, and the right and left air sacs are investigated whether they are attacked with a disease or not. The change caused by the disease is represented in four degrees; -: no change, +: slight, ++: medium and +++: serious. Microorganism is isolated from the right and left air-sacs and the trachea by using a sterilized applicator.
Judgement: Judgement is done through an index of an air-sac disease and an index of a microorganism-isolation.
Index of an air-sac-disease: First, indexes in the right and left air-sacs are separately calculated according to the following formula;
{degree of disease (0-3)×chickens}/anatomized chickens
and the index is calculated by the following formula;
(index of right air-sac)×1+(index of left air-sac)×2
Index of a microorganism isolation:
P: chickens from the right air-sac of which microorganism is isolated,
Q: chickens from the trachea of which microorganism is isolated,
R: chickens from the left air-sac of which microorganism is isolated, and
S: chickens investigated.

[6] = inoculum 6.3 × 10^4, calcium salt
[7] = Mycoplasmoides gallisepticum, 168 h, read-out: MIC

SMILES: O=c1cccccc1O.O=c1cccccc1O.[Cu] [Compound 2, Tropolone copper complex]
- MIC [1]: 3.13 µg/mL
- MIC [2]: 3.13 µg/mL
- MIC [3]: 3.13 µg/mL
- MIC [4]: 0.78 µg/mL

SMILES: O=c1cccccc1[O-].O=c1cccccc1[O-].[Ni+2] [Compound 4, Tropolone nickel complex]
- MIC [1]: 1.56 µg/mL
- MIC [2]: 3.13 µg/mL
- MIC [3]: 3.13 µg/mL
- MIC [4]: 0.78 µg/mL

SMILES: O=c1cccccc1O [Compound 5, Tropolone calcium salt]
- MIC ([1]; calcium salt): 3.13 µg/mL
- MIC ([3]; calcium salt): 1.56 µg/mL
- Change of air-sac, left: + (chickens) ([5]; inoculum 6.3 × 10^4): 0
- Change of air-sac, left: ++ (chickens) ([5]; inoculum 6.3 × 10^4): 0
- Change of air-sac, left: +++ (chickens) ([5]; inoculum 6.3 × 10^4): 0
- Change of air-sac, left: - (chickens) ([5]; inoculum 6.3 × 10^4): 5
- Change of air-sac, right: ++ (chickens) ([5]; inoculum 6.3 × 10^4): 0
- Change of air-sac, right: +++ (chickens) ([5]; inoculum 6.3 × 10^4): 0
- Isolation, L (left air-sac) ([5]; inoculum 6.3 × 10^4): 0
- Isolation, R (right air-sac) ([5]; inoculum 6.3 × 10^4): 1
- Mycoplasma Isolated Chickens ([5]; inoculum 6.3 × 10^4): 1
- Change of air-sac, right: + (chickens) [5, 6]: 0
- Change of air-sac, right: - (chickens) [5, 6]: 5
- Index of Disease ([5]; inoculum 6.3 × 10^4, range 0-9.0, calcium salt): 0
- Index of Isolation [5]: 0.2

SMILES: O=c1cccccc1O [Compound 6, Tropolone magnesium salt]
- MIC [1]: 1.56 µg/mL
- MIC [2]: 1.56 µg/mL
- MIC [3]: 1.56 µg/mL
- MIC [4]: 0.78 µg/mL

SMILES: O=c1cccccc1O [Compound 8, Tropolone sodium salt]
- MIC ([1]; sodium salt): 1.56 µg/mL
- MIC ([2]; sodium salt): 1.56 µg/mL
- MIC ([3]; sodium salt): 1.56 µg/mL
- MIC ([4]; sodium salt): 0.78 µg/mL

SMILES: O=c1cccccc1O [Compound 9, Tropolone ethanolamine salt]
- MIC [1]: 3.13 µg/mL
- MIC [3]: 3.13 µg/mL
- Change of air-sac, left: + (chickens) ([5]; inoculum 6.3 × 10^4): 0
- Change of air-sac, left: ++ (chickens) ([5]; inoculum 6.3 × 10^4): 0
- Change of air-sac, left: +++ (chickens) ([5]; inoculum 6.3 × 10^4): 0
- Change of air-sac, left: - (chickens) ([5]; inoculum 6.3 × 10^4): 5
- Change of air-sac, right: + (chickens) ([5]; inoculum 6.3 × 10^4): 1
- Change of air-sac, right: ++ (chickens) ([5]; inoculum 6.3 × 10^4): 0
- Change of air-sac, right: +++ (chickens) ([5]; inoculum 6.3 × 10^4): 0
- Change of air-sac, right: - (chickens) ([5]; inoculum 6.3 × 10^4): 4
- Isolation, L (left air-sac) ([5]; inoculum 6.3 × 10^4): 0
- Isolation, R (right air-sac) ([5]; inoculum 6.3 × 10^4): 1
- Mycoplasma Isolated Chickens ([5]; inoculum 6.3 × 10^4): 1
- Index of Disease ([5]; inoculum 6.3 × 10^4, range 0-9.0): 0.2
- Index of Isolation [5]: 0.2

SMILES: O=c1cccccc1O [Compound 10, Tropolone n-propylamine salt]
- MIC [1]: 3.13 µg/mL
- MIC [2]: 3.13 µg/mL
- MIC [3]: 3.13 µg/mL
- MIC [4]: 0.78 µg/mL

SMILES: O=C(Oc1cccccc1=O)c1ccccc1 [Compound 14, O-Benzoyltropolone]
- MIC [1, 7]: 6.25 µg/mL (≈ 27.6 µM)
- MIC [2, 7]: 6.25 µg/mL (≈ 27.6 µM)
- MIC [3, 7]: 6.25 µg/mL (≈ 27.6 µM)
- MIC ([4]; Mesomycoplasma hyopneumoniae, read-out: MIC): 0.78 µg/mL (≈ 3.45 µM)
